Reference: ChEMBL document CHEMBL1201862, “PubChem BioAssay data set” (2004)
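Results reflect a 48-hour exposure of cells in 96-well plates to compound at five concentrations. GI50 is the concentration that inhibits growth by half.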 Calls of active or inactive are those of the source. Cut-off read from the data, not from the text of the source: active = GI50 up to about 1.1 µM and inactive = higher.

Experiments:
Assay in all cases: DTP human tumour cell line panel, 48 h
SNB-75 = system: SNB-75
OVCAR-3 = system: OVCAR-3
ACHN = system: ACHN
SK-OV-3 = system: SK-OV-3
Hs-578T = system: Hs-578T
SN12C = system: SN12C
LOX IMVI = system: LOX IMVI
M14 = system: M14
MDA-N = system: MDA-N
SF-268 = system: SF-268
BT-549 = system: BT-549
HCT-15 = system: HCT-15
NCI-H226 = system: NCI-H226
SK-MEL-28 = system: SK-MEL-28
OVCAR-4 = system: OVCAR-4
SK-MEL-2 = system: SK-MEL-2
SK-MEL-5 = system: SK-MEL-5
HCT-116 = system: HCT-116
HOP-62 = system: HOP-62
OVCAR-5 = system: OVCAR-5

SMILES	GI50 (SNB-75)	GI50 (OVCAR-3)	GI50 (ACHN)	GI50 (SK-OV-3)	GI50 (Hs-578T)	GI50 (SN12C)	GI50 (LOX IMVI)	GI50 (M14)	GI50 (MDA-N)	GI50 (SF-268)	GI50 (BT-549)	GI50 (HCT-15) [µM]	GI50 (NCI-H226)	GI50 (SK-MEL-28)	GI50 (OVCAR-4)	GI50 (SK-MEL-2)	GI50 (SK-MEL-5)	GI50 (HCT-116)	GI50 (HOP-62)	GI50 (OVCAR-5)
CC(=O)OC1CC(O)CC2=CCC3C4CCC(C(C)(O)C(O)CC5COC(=O)C5C)C4(C)CCC3C21C (stereo not given)	7.08 µM (inactive)	> 25 µM (inactive)	> 25 µM (inactive)	> 25 µM (inactive)	10.3 µM (inactive)	> 25 µM (inactive)	> 25 µM (inactive)	> 25 µM (inactive)	> 25 µM (inactive)	> 25 µM (inactive)	> 25 µM (inactive)	> 25	12.1 µM (inactive)	24.5 µM (inactive)	> 25 µM (inactive)	> 25 µM (inactive)	7.66 µM (inactive)	15.2 µM (inactive)	> 25 µM (inactive)	> 25 µM (inactive)
C[Si](C)(c1ccccc1)[C@H]1CCCC=C1CCNC1c2ccccc2CCc2ccccc21	67.3 µM (inactive)	> 100 µM (inactive)	67.5 µM (inactive)	> 100 µM (inactive)	> 100 µM (inactive)	> 100 µM (inactive)	70.6 µM (inactive)	56.5 µM (inactive)	70.5 µM (inactive)	> 100 µM (inactive)	> 100 µM (inactive)	51.2	> 100 µM (inactive)	> 100 µM (inactive)	41.5 µM (inactive)	> 100 µM (inactive)	33.6 µM (inactive)	48.3 µM (inactive)	> 100 µM (inactive)	> 100 µM (inactive)
CC(C)C(OC(=O)c1cc(NC(=S)c2ccccc2)ccc1Cl)C(C)C	19.4 µM (inactive)	16.4 µM (inactive)	14.9 µM (inactive)	32.4 µM (inactive)	21.1 µM (inactive)	14.7 µM (inactive)	19.8 µM (inactive)	31.7 µM (inactive)	16.6 µM (inactive)	23 µM (inactive)	20.8 µM (inactive)	9.27	16 µM (inactive)	21.8 µM (inactive)	17.6 µM (inactive)	16 µM (inactive)	14.2 µM (inactive)	12.3 µM (inactive)	29.6 µM (inactive)	42.7 µM (inactive)
CCOC1NC(=O)Oc2ccccc21 (stereo not given)	> 100 µM (inactive)	68.2 µM (inactive)	> 100 µM (inactive)	> 100 µM (inactive)	> 100 µM (inactive)	> 100 µM (inactive)	> 100 µM (inactive)	> 100 µM (inactive)	> 100 µM (inactive)	> 100 µM (inactive)	> 100 µM (inactive)	> 100	> 100 µM (inactive)	> 100 µM (inactive)	> 100 µM (inactive)	> 100 µM (inactive)	> 100 µM (inactive)	> 100 µM (inactive)	> 100 µM (inactive)	> 100 µM (inactive)
O=CNc1ccc2c(c1)C(=O)c1ccccc1-2	86.3 µM (inactive)	> 100 µM (inactive)	> 100 µM (inactive)	> 100 µM (inactive)	24.1 µM (inactive)	30.3 µM (inactive)	48.8 µM (inactive)	> 100 µM (inactive)	> 100 µM (inactive)	47.3 µM (inactive)	> 100 µM (inactive)	59.7	> 100 µM (inactive)	> 100 µM (inactive)	> 100 µM (inactive)	> 100 µM (inactive)	> 100 µM (inactive)	37.8 µM (inactive)	90.2 µM (inactive)	> 100 µM (inactive)
O=C(O)COc1cc(-c2ccccc2)nc2cc(F)ccc12	> 100 µM (inactive)	> 100 µM (inactive)	> 100 µM (inactive)	> 100 µM (inactive)	> 100 µM (inactive)	> 100 µM (inactive)	> 100 µM (inactive)	> 100 µM (inactive)	> 100 µM (inactive)	> 100 µM (inactive)	> 100 µM (inactive)	> 100	> 100 µM (inactive)	> 100 µM (inactive)	> 100 µM (inactive)	> 100 µM (inactive)	> 100 µM (inactive)	> 100 µM (inactive)	> 100 µM (inactive)	> 100 µM (inactive)
